Measurements as given in patent US10961222B2, “Chemical compound of isocitrate dehydrogenase inhibitor, and application thereof” (NANJING SANHOME PHARMACEUTICAL CO., LTD., priority 2016, dated 2021).

Tests used:
[1] = target: T1, U87-MG cell line of overexpressed mutant IDH2 (R140Q) (Homo sapiens, UniProt P48735, R140Q); assay: Cell activity in vitro: 2-HG in culture supernatant of U87-MG (IDH2-R140Q) cells by LC-MS/MS; assay type: cell-based
T1 construct: expressed in transfected cells
T1 sequence (P48735 40-452 R140Q): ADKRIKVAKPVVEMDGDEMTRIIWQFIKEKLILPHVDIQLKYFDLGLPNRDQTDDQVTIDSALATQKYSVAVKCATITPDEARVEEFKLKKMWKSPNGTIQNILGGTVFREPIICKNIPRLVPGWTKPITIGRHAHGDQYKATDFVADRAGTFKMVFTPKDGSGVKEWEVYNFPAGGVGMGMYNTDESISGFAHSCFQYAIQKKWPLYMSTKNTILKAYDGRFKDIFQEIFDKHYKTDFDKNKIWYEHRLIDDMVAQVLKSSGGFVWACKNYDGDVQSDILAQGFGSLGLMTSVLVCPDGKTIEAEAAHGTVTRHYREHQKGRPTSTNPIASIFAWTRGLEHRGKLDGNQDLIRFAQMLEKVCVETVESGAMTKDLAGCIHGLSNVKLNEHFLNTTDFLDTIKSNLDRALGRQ
Procedure: 1.2 Cells: human glioblastoma cell line U87-MG, purchased from the American Type Culture Collection (ATCC);
Cell recovery: U87-MG (IDH2-R140Q) cells and U87-MG cells were put into a 37° C. water bath, then transferred to 15 mL of pre-warmed medium, centrifuged at 1000 rpm for 5 minutes, and the medium was discarded. The cells were resuspended in 15 mL of fresh medium, transferred to a T75 flask and cultured in a 37° C. incubator with 5% CO2. After 24 hours, the medium was changed to fresh medium.
Cell passage: The above-mentioned recovered cells were transferred to a 50 mL sterile centrifuge tube, centrifuged at 1000 rpm for 5 minutes, and the medium was discarded. The cells were resuspended evenly and counted. The cell density was adjusted appropriately in a 15 mL fresh medium, and then added to T75 culture flask. The culture flask was incubated in an incubator with 5% CO2 at 37° C.
After cells grown to a relatively high density in the culture dish, the cells were trypsinized, resuspended in medium (MEM+10% FBS), and counted. After adjusting the cell concentration, the resuspended cells were seeded in a 96-well plate at 5×10^3 cells per well. After inoculation, the cells were cultured for 24 hours until the cells adhered. The medium were sucked out, and the medium containing gradient concentration of compound was added, 100 μL per well. The cells were further cultured for 72 hours. The s 20 μL of upernatant was taken and put into a 2 mL 96-well sample-processing plate. 480 μL of dilution solution was added and shaken for mixing, and then centrifuged at 4500 rpm for 5 minutes. 200 μL of supernatant was transferred for LC-MS/MS injection analysis.
Column: Shim-pack XR-ODS 30L*2.0; mobile phase: acetonitrile-0.2% ammonia, 5 mM ammonium acetate aqueous solution; column temperature: 30° C.; flow rate: 0.4 mL/min; gradient elution conditions are as follows: […]
Atmospheric […] chemical ionization (APCI) was used. Source parameters was set as follows: IonSpray Voltage/IS-4500V; auxiliary gas 1 (Ion Source Gas 1/GS 1, N2), 55Arb; auxiliary gas 2 (Ion Source Gas 2, N2), 55Arb; auxiliary gas heating temperature (Temperature/TEM), 500° C.; curtain gas/CUR, 25Arb; collision gas/CAD, N2, 8 Pa.
Multi-ion reaction monitoring (MRM) in negative ion mode (Negative) was used. […] The internal standard (IS) MRM parameters: parent ion (Q 1 Mass), 178.0 Da; daughter ion (Q3 Mass), 149.0 Da; Decluster Potential (DP), −51V; collision voltage (Collision Energy/CE), −17 eV
By determining the 2-HG content in the cell culture supernatant of each well using LC-MS/MS, the mutant enzyme activity (2-HG remaining compared to untreated %) was calculated. The calculation formula: 2-HG remaining compared to untreated %=(Measured 2-HG level—U87-MG control 2-HG level)/(Untreated 2-HG level—U87-MG control 2-HG level)×100. […] Data were processed by GraphPad Prism v5.0 software and fitted to obtain IC50.

[2] = tested on: U87-MG (IDH2-R140Q) subcutaneous xenograft tumor; assay: Subcutaneous xenograft tumor caused by U87-MG (IDH2-R140Q) mutant cells in vivo: intratumor 2-HG; parameters: species or system BALB/c nude mice; settings: intragastric, 10 days, mean, relative to U87-MG (IDH2-R140Q) control group
Excerpt: 1.2 Animals: BALB/c nude mice, 6-7 weeks old, female, 18-22 g, purchased from Nanjing Jinlaichang Company.
U87-MG (IDH2-R140Q) cells and U87-MG cells (wild type) were expanded, and cells in logarithmic growth phase were used for tumor inoculation in vivo. 16 mice were inoculated subcutaneously into the right lower back of the body at an amount of 2×10^6 cells/mouse (the volume ratio of cell suspension to Matrigel was 1:0.8).
The non-mutation control group was nude mice inoculated with U87-MG cells, and the test compound groups and vehicle control group were nude mice inoculated with U87-MG (IDH2-R140Q) cells.
Each group was intragastrically administered with a corresponding concentration of the compound solution, the administration volume was 100 μL/10 g body weight, and the control group was administered the same volume of blank vehicle.
After 10 days of administration, the mice were sacrificed. The tumors were exfoliated, homogenized, and the 2-HG content in the tumor was examined.
The 2-HG concentration in the homogenate of each animal tumor in each group was determined by LC-MS/MS. The percentage (2-HG %) was calculated; the calculation formula is as follows 2-HG %=(2-HG concentration of administration group tumor−2-HG concentration of U87-MG control group tumor)/(2-HG concentration of U87−MG(IDH2-R140Q) control group tumor−2-HG concentration of U87-MG control group tumor)×100%.

[3] = tested on: human acute myeloid leukemia AM7577 cells; assay: Human acute myeloid leukemia NOD/SCID animal model: survival; assay type: in vivo, NOD/SCID mice; settings: gavage once a day for 14 days, 14 days after administration
Excerpt: 1.1 Compounds to be tested: the compounds of the present disclosure prepared in the above examples, each of which was formulated into a solution in corresponding concentrations by using a vehicle (2% absolute ethanol:10% Solutol™: 88% physiological saline (v/v/v)).
1.2 Cells: human acute myeloid leukemia AM7577 cells, provided by Sino-American Crown Biotechnology (Beijing) Co., Ltd
1.4 Animals: NOD/SCID mice, 3-4 weeks old, female, purchased from Beijing Huakangkang Biotechnology Co., Ltd
Each mouse was inoculated through the tail vein at an amount of 2×10^6 cells resuspended in 100 uL of PBS.
Orbital blood samples of animals were collected weekly, labeled with human CD45, and the percentage of positive cells was detected. The animals were grouped when the percentage of peripheral blood CD45+ cells reached 5%. The proportion of peripheral blood CD45+ cells reached 5% on the 40th day after inoculation. After grouping, drugs were administered by gastric gavageonce once a day for 14 days.
The mortality rate of the animals after administration and the survival period of the surviving animals were observed.

## CC(C)(O)CNc1nc(Nc2ccnc(C(F)(F)F)c2)nc(-c2cccc(C(F)(F)F)n2)n1 [AG-221, 2-methyl-1-(4-(6-(trifluoromethyl)pyridin-2-yl)-6-(2-(trifluoromethyl)pyridin-4-ylamino)-1,3,5-triazin-2ylamino)propan-2-ol, reference compound]
[1]
  IC50: 30.2 nM
[2]; 6.25 mg/kg
  Intratumor 2-HG(%) after 10 days of administration: 58%
[2]; 12.5 mg/kg
  Intratumor 2-HG(%) after 10 days of administration: 9%
[2]; 25 mg/kg
  Intratumor 2-HG(%) after 10 days of administration: −4%
[3]; 15 mg/kg, 8 animals per group
  Numbers of surviving animals: 6
[3]; 45 mg/kg, AG-221 group 4 animals, Example 22B group 8
  Numbers of surviving animals: 3
